Measurements reported in US11542259B2, “Compounds for the treatment of kinase-dependent disorders” (Exelixis, Inc., priority 2018, dated 2023).

How the values were obtained:
[1] = biological target: AXL (Homo sapiens (Human), UniProt P30530); assay: AXL autophosphorylation ELISA in A-172 cells; type: cell-based; conditions: cellular, Gas6 stimulated
How it was run: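 Serum-starved (24 h) A-172 glioblastoma cells pretreated 1 h with compounds (8-point curve, 0.3% DMSO), then stimulated 15 min with 1 μg/mL Gas6. Lysate phospho-AXL measured by sandwich ELISA against a phospho-AXL standard; IC50 from 4-parameter logistic fit between DMSO and reference-inhibitor controls.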

[2] = biological target: KDR (Homo sapiens (Human), UniProt P35968); assay: KDR autophosphorylation ELISA in HUVEC cells; type: cell-based; conditions: cellular, VEGF165 stimulated
Chain of KDR (P35968 20-1356): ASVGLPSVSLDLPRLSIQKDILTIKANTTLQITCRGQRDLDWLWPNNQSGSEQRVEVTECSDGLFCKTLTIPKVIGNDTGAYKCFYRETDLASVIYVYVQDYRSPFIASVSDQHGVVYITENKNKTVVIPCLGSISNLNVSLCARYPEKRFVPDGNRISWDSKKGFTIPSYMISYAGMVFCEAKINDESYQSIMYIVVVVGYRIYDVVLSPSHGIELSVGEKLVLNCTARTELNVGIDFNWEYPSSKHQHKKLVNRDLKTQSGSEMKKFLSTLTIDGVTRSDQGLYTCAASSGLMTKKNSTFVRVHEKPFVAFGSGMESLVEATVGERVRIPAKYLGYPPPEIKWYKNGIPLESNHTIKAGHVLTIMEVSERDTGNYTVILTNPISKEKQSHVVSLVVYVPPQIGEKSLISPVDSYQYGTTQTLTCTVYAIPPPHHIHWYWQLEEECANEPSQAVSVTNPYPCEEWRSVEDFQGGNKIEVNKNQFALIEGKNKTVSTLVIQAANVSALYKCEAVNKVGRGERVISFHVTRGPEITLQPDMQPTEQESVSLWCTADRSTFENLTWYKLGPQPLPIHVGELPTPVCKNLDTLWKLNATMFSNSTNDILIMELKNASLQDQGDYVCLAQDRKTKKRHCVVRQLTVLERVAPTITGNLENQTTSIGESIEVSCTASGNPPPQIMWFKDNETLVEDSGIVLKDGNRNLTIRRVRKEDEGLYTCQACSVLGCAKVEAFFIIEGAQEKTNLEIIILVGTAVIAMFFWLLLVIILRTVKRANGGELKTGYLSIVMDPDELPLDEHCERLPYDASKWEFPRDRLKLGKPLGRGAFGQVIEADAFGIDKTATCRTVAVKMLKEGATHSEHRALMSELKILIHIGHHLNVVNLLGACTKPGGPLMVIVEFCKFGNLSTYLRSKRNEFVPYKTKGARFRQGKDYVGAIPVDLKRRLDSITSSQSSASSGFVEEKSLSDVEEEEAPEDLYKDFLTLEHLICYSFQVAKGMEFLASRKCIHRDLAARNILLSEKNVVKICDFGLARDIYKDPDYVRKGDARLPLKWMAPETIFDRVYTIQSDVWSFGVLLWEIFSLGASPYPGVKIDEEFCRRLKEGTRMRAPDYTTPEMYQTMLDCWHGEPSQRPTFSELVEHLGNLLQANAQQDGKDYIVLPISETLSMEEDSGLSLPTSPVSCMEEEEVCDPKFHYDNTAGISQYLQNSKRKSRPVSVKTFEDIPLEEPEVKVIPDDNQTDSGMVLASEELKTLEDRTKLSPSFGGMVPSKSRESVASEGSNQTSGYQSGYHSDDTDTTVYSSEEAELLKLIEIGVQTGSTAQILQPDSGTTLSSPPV
How it was run: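 HUVEC, 24 h serum-free starvation; cpd 8-pt dilution, 0.3% DMSO final, 1 h; VEGF165 100 ng/mL, 5 min; cold lysis; phospho-KDR ELISA; IC50, 4PL.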

Chain of AXL (P30530 26-894): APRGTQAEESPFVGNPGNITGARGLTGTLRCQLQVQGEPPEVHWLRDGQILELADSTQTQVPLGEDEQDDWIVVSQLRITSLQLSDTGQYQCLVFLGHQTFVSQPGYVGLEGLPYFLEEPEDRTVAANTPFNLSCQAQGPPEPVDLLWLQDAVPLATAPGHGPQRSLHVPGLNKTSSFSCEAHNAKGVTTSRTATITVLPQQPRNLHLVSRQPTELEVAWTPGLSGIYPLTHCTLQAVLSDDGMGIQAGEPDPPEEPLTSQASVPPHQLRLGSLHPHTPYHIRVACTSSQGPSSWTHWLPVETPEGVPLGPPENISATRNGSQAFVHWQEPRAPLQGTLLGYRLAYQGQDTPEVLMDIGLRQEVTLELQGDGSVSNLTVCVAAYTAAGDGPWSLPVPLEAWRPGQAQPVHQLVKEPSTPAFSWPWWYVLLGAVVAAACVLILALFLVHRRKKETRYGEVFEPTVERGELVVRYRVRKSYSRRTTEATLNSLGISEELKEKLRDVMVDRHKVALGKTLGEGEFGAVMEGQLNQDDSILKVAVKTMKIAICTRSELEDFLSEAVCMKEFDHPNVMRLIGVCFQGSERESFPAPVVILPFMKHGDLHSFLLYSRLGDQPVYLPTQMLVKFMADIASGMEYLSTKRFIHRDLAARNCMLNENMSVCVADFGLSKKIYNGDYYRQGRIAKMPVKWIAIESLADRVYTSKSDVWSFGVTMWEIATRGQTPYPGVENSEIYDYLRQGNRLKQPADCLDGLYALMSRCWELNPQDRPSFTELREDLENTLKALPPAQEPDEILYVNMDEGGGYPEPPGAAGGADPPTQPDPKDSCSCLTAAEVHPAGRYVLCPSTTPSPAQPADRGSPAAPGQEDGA

SMILES | IC50 [1] | IC50 [2]
COc1cc2nccc(Oc3ccc(NC(=O)C4(C(=O)Nc5ccc(F)cc5)CC4)cc3Cl)c2cc1C(=O)O [Compound 130, 4-[2-chloro-4-[[1-[(4-fluorophenyl)carbamoyl]cyclopropanecarbonyl]amino]phenoxy]-7-methoxyquinoline-6-carboxylic acid] | > 300 nM | > 300 nM
COc1cc2nccc(Oc3ccc(NC(=O)C4(C(=O)Nc5ccc(F)cc5)CC4)cc3F)c2cc1C(=O)O [Compound 131, 4-[2-fluoro-4-[[1-[(4-fluorophenyl)carbamoyl]cyclopropanecarbonyl]amino]phenoxy]-7-methoxyquinoline-6-carboxylic acid] | > 300 nM | > 300 nM
COC(=O)c1ccc2c(Oc3ccc(NC(=O)C4(C(=O)Nc5ccc(F)cc5)CC4)cc3)ccnc2c1 [Compound 162, methyl 4-[4-[[1-[(4-fluorophenyl)carbamoyl]cyclopropanecarbonyl]amino]phenoxy]quinoline-7-carboxylate] | > 300 nM | 10 to 100 nM
COc1cc2nccc(Oc3ccc(NC(=O)C4(C(=O)Nc5ccc(F)cc5)CC4)cc3)c2cc1-c1c(C)noc1C [Compound 184, 1-N-[4-[6-(3,5-dimethyl-1,2-oxazol-4-yl)-7-methoxyquinolin-4-yl]oxyphenyl]-1-N′-(4-fluorophenyl)cyclopropane-1,1-dicarboxamide] | 100 to 300 nM | > 300 nM
COc1cc2nccc(Oc3ccc(NC(=O)C4(C(=O)Nc5ccc(F)cc5)CC4)cc3)c2cc1C1(O)CN(C(=O)OC(C)(C)C)C1 [Compound 195, tert-butyl 3-[4-[4-[[1-[(4-fluorophenyl)carbamoyl]cyclopropanecarbonyl]amino]phenoxy]-7-methoxyquinolin-6-yl]-3-hydroxyazetidine-1-carboxylate] | 100 to 300 nM | 10 to 100 nM
COc1cc2nccc(Oc3ccc(NC(=O)C4(C(=O)Nc5ccc(F)cc5)CC4)cc3)c2cc1C1(O)CNC1 [Compound 197, 1-N′-(4-fluorophenyl)-1-N-[4-[6-(3-hydroxyazetidin-3-yl)-7-methoxyquinolin-4-yl]oxyphenyl]cyclopropane-1,1-dicarboxamide] | 100 to 300 nM | > 300 nM
COc1cc2nccc(Oc3ccc(NC(=O)C4(C(=O)Nc5ccc(F)cc5)CC4)cc3)c2cc1N1CCC1 [Compound 198, 1-N-[4-[6-(azetidin-1-yl)-7-methoxyquinolin-4-yl]oxyphenyl]-1-N′-(4-fluorophenyl)cyclopropane-1,1-dicarboxamide] | 10 to 100 nM | 10 to 100 nM
COc1cc2nccc(Oc3ccc(NC(=O)C4(C(=O)Nc5ccc(F)cc5)CC4)cc3)c2cc1N1CC(F)(F)C1 [Compound 200, 1-N-[4-[6-(3,3-difluoroazetidin-1-yl)-7-methoxyquinolin-4-yl]oxyphenyl]-1-N′-(4-fluorophenyl)cyclopropane-1,1-dicarboxamide] | 10 to 100 nM | 10 to 100 nM
COc1cc2nccc(Oc3ccc(NC(=O)C4(C(=O)Nc5ccc(F)cc5)CC4)cc3)c2cc1-c1cccnc1 [Compound 201, 1-N′-(4-Fluorophenyl)-1-N-[4-(7-methoxy-6-pyridin-3-ylquinolin-4-yl)oxyphenyl]cyclopropane-1,1-dicarboxamide] | 10 to 100 nM | 10 to 100 nM
COc1cc2nccc(Oc3ccc(NC(=O)C4(C(=O)Nc5ccc(F)cc5)CC4)cc3)c2cc1-c1ccncc1 [Compound 202, 1-N′-(4-Fluorophenyl)-1-N-[4-(7-methoxy-6-pyridin-4-ylquinolin-4-yl)oxyphenyl]cyclopropane-1,1-dicarboxamide] | 10 to 100 nM | 10 to 100 nM
COc1cc2nccc(Oc3ccc(NC(=O)C4(C(=O)Nc5ccc(F)cc5)CC4)cc3)c2cc1S(C)(=O)=O [Compound 210, 1-N′-(4-Fluorophenyl)-1-N-[4-(7-methoxy-6-methylsulfonylquinolin-4-yl)oxyphenyl]cyclopropane-1,1-dicarboxamide] | 10 to 100 nM | ≤ 10 nM

Other lines, results leading:

IC50 [1] | IC50 [2] | SMILES
10 to 100 nM | ≤ 10 nM | COC(=O)c1cc2c(Oc3ccc(NC(=O)C4(C(=O)Nc5ccc(F)cc5)CC4)cc3Cl)ccnc2cc1OC [Compound 128, methyl 4-[2-chloro-4-[[1-[(4-fluorophenyl)carbamoyl]cyclopropanecarbonyl]amino]phenoxy]-7-methoxyquinoline-6-carboxylate]
≤ 10 nM | ≤ 10 nM | COC(=O)c1cc2c(Oc3ccc(NC(=O)C4(C(=O)Nc5ccc(F)cc5)CC4)cc3F)ccnc2cc1OC [Compound 129, methyl 4-[2-fluoro-4-[[1-[(4-fluorophenyl)carbamoyl]cyclopropanecarbonyl]amino]phenoxy]-7-methoxyquinoline-6-carboxylate]
10 to 100 nM | 10 to 100 nM | COC(=O)c1cc2nccc(Oc3ccc(NC(=O)C4(C(=O)Nc5ccc(F)cc5)CC4)cc3)c2cc1C [Compound 140, methyl 4-[4-[[1-[(4-fluorophenyl)carbamoyl]cyclopropanecarbonyl]amino]phenoxy]-6-methylquinoline-7-carboxylate]
10 to 100 nM | 100 to 300 nM | CNC(=O)c1cc2nccc(Oc3ccc(NC(=O)C4(C(=O)Nc5ccc(F)cc5)CC4)cc3)c2cc1C [Compound 143, 1-N′-(4-fluorophenyl)-1-N-[4-[6-methyl-7-(methylcarbamoyl)quinolin-4-yl]oxyphenyl]cyclopropane-1,1-dicarboxamide]
10 to 100 nM | ≤ 10 nM | COC(=O)c1cc2nccc(Oc3ccc(NC(=O)C4(C(=O)Nc5ccc(F)cc5)CC4)cc3)c2cc1OC [Compound 150, methyl 4-[4-[[1-[(4-fluorophenyl)carbamoyl]cyclopropanecarbonyl]amino]phenoxy]-6-methoxyquinoline-7-carboxylate]
10 to 100 nM | 100 to 300 nM | COc1cc2c(Oc3ccc(NC(=O)C4(C(=O)Nc5ccc(F)cc5)CC4)cc3)ccnc2cc1C(N)=O [Compound 152, 1-N-[4-(7-carbamoyl-6-methoxyquinolin-4-yl)oxyphenyl]-1-N′-(4-fluorophenyl)cyclopropane-1,1-dicarboxamide]
10 to 100 nM | 10 to 100 nM | CNC(=O)c1cc2nccc(Oc3ccc(NC(=O)C4(C(=O)Nc5ccc(F)cc5)CC4)cc3)c2cc1OC [Compound 153, 1-N′-(4-fluorophenyl)-1-N-[4-[6-methoxy-7-(methylcarbamoyl)quinolin-4-yl]oxyphenyl]cyclopropane-1,1-dicarboxamide]
10 to 100 nM | 100 to 300 nM | COc1cc2nccc(Oc3ccc(NC(=O)C4(C(=O)Nc5ccc(F)cc5)CC4)cc3)c2cc1-c1cccc(C#N)c1F [Compound 175, 1-N-[4-[6-(3-cyano-2-fluorophenyl)-7-methoxyquinolin-4-yl]oxyphenyl]-1-N′-(4-fluorophenyl)cyclopropane-1,1-dicarboxamide]
10 to 100 nM | 10 to 100 nM | COc1cc2nccc(Oc3ccc(NC(=O)C4(C(=O)Nc5ccc(F)cc5)CC4)cc3)c2cc1-c1ccccn1 [Compound 176, 1-N′-(4-fluorophenyl)-1-N-[4-(7-methoxy-6-pyridin-2-ylquinolin-4-yl)oxyphenyl]cyclopropane-1,1-dicarboxamide]
≤ 10 nM | 10 to 100 nM | COc1cc2nccc(Oc3ccc(NC(=O)C4(C(=O)Nc5ccc(F)cc5)CC4)cc3)c2cc1-c1ccc(C)o1 [Compound 180, 1-N′-(4-fluorophenyl)-1-N-[4-[7-methoxy-6-(5-methylfuran-2-yl)quinolin-4-yl]oxyphenyl]cyclopropane-1,1-dicarboxamide]
10 to 100 nM | 10 to 100 nM | COc1cc2nccc(Oc3ccc(NC(=O)C4(C(=O)Nc5ccc(F)cc5)CC4)cc3)c2cc1-c1cnoc1 [Compound 183, 1-N′-(4-fluorophenyl)-1-N-[4-[7-methoxy-6-(1,2-oxazol-4-yl)quinolin-4-yl]oxyphenyl]cyclopropane-1,1-dicarboxamide]
≤ 10 nM | ≤ 10 nM | COc1cc2nccc(Oc3ccc(NC(=O)C4(C(=O)Nc5ccc(F)cc5)CC4)cc3)c2cc1-c1cn[nH]c1 [Compound 186, 1-N′-(4-fluorophenyl)-1-N-[4-[7-methoxy-6-(1H-pyrazol-4-yl)quinolin-4-yl]oxyphenyl]cyclopropane-1,1-dicarboxamide]
10 to 100 nM | 10 to 100 nM | COc1cc2nccc(Oc3ccc(NC(=O)C4(C(=O)Nc5ccc(F)cc5)CC4)cc3)c2cc1C1CC1 [Compound 187, 1-N-[4-(6-cyclopropyl-7-methoxyquinolin-4-yl)oxyphenyl]-1-N′-(4-fluorophenyl)cyclopropane-1,1-dicarboxamide]
≤ 10 nM | 10 to 100 nM | COc1cc2nccc(Oc3ccc(NC(=O)C4(C(=O)Nc5ccc(F)cc5)CC4)cc3)c2cc1-c1ccc[nH]1 [Compound 188, 1-N′-(4-fluorophenyl)-1-N-[4-[7-methoxy-6-(1H-pyrrol-2-yl)quinolin-4-yl]oxyphenyl]cyclopropane-1,1-dicarboxamide]
10 to 100 nM | 10 to 100 nM | COc1cc2nccc(Oc3ccc(NC(=O)C4(C(=O)Nc5ccc(F)cc5)CC4)cc3)c2cc1C1(O)COC1 [Compound 196, 1-N′-(4-fluorophenyl)-1-N-[4-[6-(3-hydroxyoxetan-3-yl)-7-methoxyquinolin-4-yl]oxyphenyl]cyclopropane-1,1-dicarboxamide]
≤ 10 nM | ≤ 10 nM | COc1cc2nccc(Oc3ccc(NC(=O)C4(C(=O)Nc5ccc(F)cc5)CC4)cc3)c2cc1N1CC(O)C1 [Compound 199, 1-N′-(4-fluorophenyl)-1-N-[4-[6-(3-hydroxyazetidin-1-yl)-7-methoxyquinolin-4-yl]oxyphenyl]cyclopropane-1,1-dicarboxamide]
